Test results taken from article PMC9249726 (Clinical Pharmacokinetics, 2022).
Where two headings read alike, the source gives them in different places.

Legend:
[1] = cited from earlier work
[2] = Plasma protein binding; format: in vitro ADME, human; settings: for fraction unbound: human, plasma, oral, 60 mg, geometric mean (geometric CV)
[3] = system: activated partial thromboplastin time (aPTT); test: Pharmacodynamic biomarker aPTT after single-dose milvexian 60 mg; format: in vivo, human; settings: for Time at which mean aPTT returned to baseline: post-dose; for Maximal percentage increase from baseline in aPTT: single oral 60 mg
[4] = Safety and tolerability of single oral dose milvexian 60 mg; format: in vivo, human; settings: single oral 60 mg, all groups, in words
[5] = milvexian 60 mg; ref previous studies; cited from earlier work
[6] = animal studies; no reference given; cited from earlier work
[7] = system: cytochrome P450 (CYP)-3A4; settings: in words; no reference given; cited from earlier work
[8] = for increase in exposure, AUC(INF) / increase in exposure, Cmax: mild or moderate hepatic impairment compared with normal hepatic function

COc1ccc(-n2nc(C(N)=O)c3c2C(=O)N(c2ccc(N4CCCCC4=O)cc2)CC3)cc1 [apixaban]
AUC increase in participants with moderate hepatic impairment ([1]; apixaban 5 mg): 1.09 fold

C[C@@H]1CCC[C@H](n2cnc(-c3cc(Cl)ccc3-n3cc(Cl)nn3)cc2=O)c2cc(ccn2)-c2c(cnn2C(F)F)NC1=O [milvexian]
fraction unbound ([2]; mild hepatic impairment (n = 9)): 0.0852
fraction unbound ([2]; moderate hepatic impairment (n = 8)): 0.0955
fraction unbound ([2]; normal hepatic function (n = 9)): 0.0775
Plasma protein binding ([2]; in words): moderate to high
geometric mean fraction of unbound milvexian ([2]; mild hepatic impairment): 8.52%
geometric mean fraction of unbound milvexian ([2]; moderate hepatic impairment): 9.55%
geometric mean fraction of unbound milvexian ([2]; normal hepatic function): 7.75%
Time at which mean aPTT returned to baseline ([3]; mild hepatic impairment): ≤ 48 h
Maximal percentage increase from baseline in aPTT ([3]; mild hepatic impairment): approximately 90%
Time at which mean aPTT returned to baseline ([3]; moderate hepatic impairment): approximately 72 h
Maximal percentage increase from baseline in aPTT ([3]; moderate hepatic impairment): approximately 90%
Time at which mean aPTT returned to baseline ([3]; normal hepatic function): ≤ 48 h
increase in aPTT ([3]; participants with hepatic impairment (mild or moderate), single dose 60 mg): 90%
bleeding AEs [4]: no bleeding AEs
deaths, SAEs, discontinuations due to AEs [4]: no serious adverse events (AEs), bleeding AEs, or discontinuations due to AEs
drug-induced liver injury [4]: no reports of drug-induced liver injury
deaths, SAEs, discontinuations due to AEs ([4]; listed as Milvexian): no deaths, SAEs, or treatment discontinuations due to AEs
expected variability in pharmacokinetics [5]: ~ 20%
direct biliary excretion [6]: ~ 30 % of the dose
excretion through metabolism [6]: 40–50 % of the administered dose
metabolising enzymes [7]: predominantly metabolized by cytochrome P450 (CYP)-3A4, with minor contributions from CYP3A5
variability in pharmacokinetics observed in this study ([8]; milvexian 60 mg, group with normal hepatic function): > 50%
increase in exposure, AUC(INF) ([8]; total milvexian): up to 18%
increase in exposure, Cmax ([8]; total milvexian): up to 18%
increase in exposure, AUC(INF) ([8]; unbound milvexian): up to 30%
increase in exposure, Cmax ([8]; unbound milvexian): up to 40%

O=C(NC[C@H]1CN(c2ccc(N3CCOCC3=O)cc2)C(=O)O1)c1ccc(Cl)s1 [rivaroxaban]
AUC increase in participants with moderate hepatic impairment ([1]; rivaroxaban 10 mg): 2.27 fold
